From ChEMBL document CHEMBL1201862, “PubChem BioAssay data set” (2004)
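Growth conditions: 96-well plates. Treatment: test compound, 48 hours, 5 concentrations. Analysis: linear interpolation between bracketing concentrations; unreached endpoints set to highest concentration. At the GI50, growth is halved.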 The source made the active and inactive calls. Rule as the data show it: active = GI50 up to about 1.1 µM and inactive = higher.

Experiments:
Test in all cases: DTP human tumour cell line panel, 48 h
MDA-MB-231 = test system: MDA-MB-231
T47D = test system: T47D
IGROV-1 = test system: IGROV-1
SW-620 = test system: SW-620
HOP-92 = test system: HOP-92
SK-OV-3 = test system: SK-OV-3
UACC-62 = test system: UACC-62
MCF7 = test system: MCF7
PC-3 = test system: PC-3
DU-145 = test system: DU-145
SR = test system: SR
SNB-19 = test system: SNB-19
SK-MEL-2 = test system: SK-MEL-2
LOX IMVI = test system: LOX IMVI
MDA-MB-435 = test system: MDA-MB-435
NCI-H23 = test system: NCI-H23
NCI/ADR-RES = test system: NCI/ADR-RES
A549 = test system: A549
Malme-3M = test system: Malme-3M
OVCAR-3 = test system: OVCAR-3

| SMILES | GI50 (MDA-MB-231) | GI50 (T47D) | GI50 (IGROV-1) | GI50 (SW-620) | GI50 (HOP-92) | GI50 (SK-OV-3) | GI50 (UACC-62) | GI50 (MCF7) | GI50 (PC-3) | GI50 (DU-145) | GI50 (SR) | GI50 (SNB-19) | GI50 (SK-MEL-2) | GI50 (LOX IMVI) | GI50 (MDA-MB-435) | GI50 (NCI-H23) | GI50 (NCI/ADR-RES) | GI50 (A549) | GI50 (Malme-3M) | GI50 (OVCAR-3) |
| --- | --- | --- | --- | --- | --- | --- | --- | --- | --- | --- | --- | --- | --- | --- | --- | --- | --- | --- | --- | --- |
| O=C(CCl)Nc1ccc(-c2nc3ccccc3s2)cc1 | 3.07 µM (inactive) | 1.53 µM (inactive) | 1.34 µM (inactive) | 2.21 µM (inactive) | 2.36 µM (inactive) | 4.78 µM (inactive) | 2.22 µM (inactive) | 0.184 µM (active) | 2.56 µM (inactive) | 10.4 µM (inactive) | 1.46 µM (inactive) | 2.4 µM (inactive) | 2.65 µM (inactive) | 0.847 µM (active) | 4.03 µM (inactive) | 2.96 µM (inactive) | 4.59 µM (inactive) | 10 µM (inactive) | 2.07 µM (inactive) | 1.82 µM (inactive) |
| Nc1ccc(C(=O)O)cc1.Nc1nc(N)c2nc[nH]c2n1 | 45.4 µM (inactive) | 3.27 µM (inactive) | 29.9 µM (inactive) | 25.7 µM (inactive) | 79.3 µM (inactive) | 34.8 µM (inactive) | 11.1 µM (inactive) | 3.97 µM (inactive) | 22.3 µM (inactive) | 13.8 µM (inactive) | 33.2 µM (inactive) | 40.7 µM (inactive) | 22.9 µM (inactive) | 24.7 µM (inactive) | 12.2 µM (inactive) | 23.5 µM (inactive) | 38.5 µM (inactive) | 13.3 µM (inactive) | 69.2 µM (inactive) | 19.1 µM (inactive) |
| CC(C)(C)[Si](C)(C)OCC1C=CC(n2cnc3c(N)ncnc32)O1 (stereo not drawn) | 44.2 µM (inactive) | 20.6 µM (inactive) | 46.6 µM (inactive) | 21 µM (inactive) | 9.04 µM (inactive) | 81.1 µM (inactive) | 44.5 µM (inactive) | 30.1 µM (inactive) | 39.8 µM (inactive) | 64.3 µM (inactive) | 15.1 µM (inactive) | 94.2 µM (inactive) | 39.4 µM (inactive) | 23 µM (inactive) | 22.3 µM (inactive) | 39.1 µM (inactive) | 34.2 µM (inactive) | > 100 µM (inactive) | 61.1 µM (inactive) | 24.1 µM (inactive) |
| Nc1nc(Cl)cc(NCC2(CO)CCCC2)n1 | > 100 µM (inactive) | > 100 µM (inactive) | > 100 µM (inactive) | > 100 µM (inactive) | 52.5 µM (inactive) | > 100 µM (inactive) | > 100 µM (inactive) | 75.2 µM (inactive) | > 100 µM (inactive) | > 100 µM (inactive) | > 100 µM (inactive) | > 100 µM (inactive) | > 100 µM (inactive) | 59.7 µM (inactive) | > 100 µM (inactive) | 65.6 µM (inactive) | 55.8 µM (inactive) | > 100 µM (inactive) | > 100 µM (inactive) | > 100 µM (inactive) |
| COc1cc2ccc1OCc1cccc(n1)COc1ccc(cc1OC)/C=N\CCNCCNCC/N=C\2 | > 100 µM (inactive) | > 100 µM (inactive) | > 100 µM (inactive) | > 100 µM (inactive) | > 100 µM (inactive) | > 100 µM (inactive) | > 100 µM (inactive) | 49 µM (inactive) | > 100 µM (inactive) | > 100 µM (inactive) | > 100 µM (inactive) | > 100 µM (inactive) | > 100 µM (inactive) | > 100 µM (inactive) | > 100 µM (inactive) | > 100 µM (inactive) | > 100 µM (inactive) | > 100 µM (inactive) | > 100 µM (inactive) | > 100 µM (inactive) |
| N#Cc1nc(-c2cccs2)oc1N | 51.3 µM (inactive) | > 100 µM (inactive) | > 100 µM (inactive) | > 100 µM (inactive) | 90.2 µM (inactive) | > 100 µM (inactive) | > 100 µM (inactive) | 83.2 µM (inactive) | > 100 µM (inactive) | > 100 µM (inactive) | > 100 µM (inactive) | > 100 µM (inactive) | > 100 µM (inactive) | 63.5 µM (inactive) | > 100 µM (inactive) | > 100 µM (inactive) | > 100 µM (inactive) | > 100 µM (inactive) | > 100 µM (inactive) | > 100 µM (inactive) |
| O=C(O)[C@@]1(Cc2ccc(O)cc2)C[C@@H]2Cc3ccccc3N2N1 | > 100 µM (inactive) | > 100 µM (inactive) | > 100 µM (inactive) | > 100 µM (inactive) | > 100 µM (inactive) | > 100 µM (inactive) | > 100 µM (inactive) | > 100 µM (inactive) | > 100 µM (inactive) | > 100 µM (inactive) | > 100 µM (inactive) | > 100 µM (inactive) | > 100 µM (inactive) | > 100 µM (inactive) | > 100 µM (inactive) | > 100 µM (inactive) | > 100 µM (inactive) | > 100 µM (inactive) | > 100 µM (inactive) | > 100 µM (inactive) |
| O=c1c2cc(I)ccc2nc(SCc2nncs2)n1Cc1ccccc1 | 16.8 µM (inactive) | 8.93 µM (inactive) | 3.89 µM (inactive) | > 100 µM (inactive) | 3.34 µM (inactive) | 43.7 µM (inactive) | 13.6 µM (inactive) | 35.6 µM (inactive) | 13.8 µM (inactive) | 23.1 µM (inactive) | 15.4 µM (inactive) | 19.5 µM (inactive) | 16.1 µM (inactive) | 29.5 µM (inactive) | 19.2 µM (inactive) | 25.6 µM (inactive) | > 100 µM (inactive) | 22.9 µM (inactive) | – | 12.3 µM (inactive) |
| CC(=O)O[C@H]1CC[C@@]2(C)C(=CC[C@@H]3[C@@H]2CC[C@]2(C)c4c(cc(C#N)c(=N)n4C(C)=O)C[C@@H]32)C1 | 31.1 µM (inactive) | 17.6 µM (inactive) | 22.2 µM (inactive) | 19.4 µM (inactive) | 14.7 µM (inactive) | 6.7 µM (inactive) | 15.7 µM (inactive) | 22.3 µM (inactive) | 21.5 µM (inactive) | 27.1 µM (inactive) | 23.8 µM (inactive) | 28 µM (inactive) | – | 16.7 µM (inactive) | 19.6 µM (inactive) | 15.3 µM (inactive) | 17.2 µM (inactive) | 23 µM (inactive) | 17.2 µM (inactive) | 17.6 µM (inactive) |
| COc1cc(C2S/C(=C/c3ccccc3)C(=O)N2c2ccccn2)cc(OC)c1OC (stereo not drawn) | 24.8 µM (inactive) | 7.35 µM (inactive) | 11 µM (inactive) | 15.3 µM (inactive) | 8.3 µM (inactive) | 28.2 µM (inactive) | 14.7 µM (inactive) | 11.7 µM (inactive) | 22.4 µM (inactive) | 10.3 µM (inactive) | 3.02 µM (inactive) | 18.1 µM (inactive) | 30 µM (inactive) | 9.59 µM (inactive) | 11.5 µM (inactive) | 13.7 µM (inactive) | 19.5 µM (inactive) | 18.5 µM (inactive) | 13.4 µM (inactive) | 12.4 µM (inactive) |
| CC(C)=CCC[C@@H](C)C1=C(O)C(=O)C(C)=C(Nc2ccccc2Br)C1=O | 20.7 µM (inactive) | 13.8 µM (inactive) | 8.69 µM (inactive) | 17.3 µM (inactive) | 11.6 µM (inactive) | 17.5 µM (inactive) | 13.3 µM (inactive) | 18.2 µM (inactive) | 8.51 µM (inactive) | 14.4 µM (inactive) | 9.66 µM (inactive) | 16.4 µM (inactive) | 13.3 µM (inactive) | 11.9 µM (inactive) | 19.9 µM (inactive) | 9.71 µM (inactive) | 3.78 µM (inactive) | 17.8 µM (inactive) | 9.4 µM (inactive) | 4.13 µM (inactive) |
| COc1cccc(C(C#N)NC23CC4CC(CC(C4)C2)C3)c1 (stereo not drawn) | > 100 µM (inactive) | > 100 µM (inactive) | > 100 µM (inactive) | > 100 µM (inactive) | > 100 µM (inactive) | > 100 µM (inactive) | > 100 µM (inactive) | > 100 µM (inactive) | > 100 µM (inactive) | > 100 µM (inactive) | > 100 µM (inactive) | > 100 µM (inactive) | > 100 µM (inactive) | > 100 µM (inactive) | > 100 µM (inactive) | > 100 µM (inactive) | > 100 µM (inactive) | > 100 µM (inactive) | > 100 µM (inactive) | > 100 µM (inactive) |
| C/C(=N\Nc1nc2ccccc2s1)c1cccc[n+]1[O-] | 49.9 µM (inactive) | 30.8 µM (inactive) | 21.7 µM (inactive) | 32.7 µM (inactive) | 13.5 µM (inactive) | 37.4 µM (inactive) | 50.1 µM (inactive) | 23.2 µM (inactive) | 33 µM (inactive) | > 100 µM (inactive) | 23.9 µM (inactive) | > 100 µM (inactive) | > 100 µM (inactive) | 48.6 µM (inactive) | 99.1 µM (inactive) | 47.3 µM (inactive) | 29.7 µM (inactive) | 42.8 µM (inactive) | 1.09 µM (active) | 24.8 µM (inactive) |
| O=C(O)C1C2C=CC(O2)C1C(=O)Nc1ncccn1 (stereo not drawn) | > 100 µM (inactive) | > 100 µM (inactive) | > 100 µM (inactive) | > 100 µM (inactive) | > 100 µM (inactive) | > 100 µM (inactive) | > 100 µM (inactive) | > 100 µM (inactive) | > 100 µM (inactive) | > 100 µM (inactive) | > 100 µM (inactive) | > 100 µM (inactive) | > 100 µM (inactive) | > 100 µM (inactive) | > 100 µM (inactive) | > 100 µM (inactive) | > 100 µM (inactive) | > 100 µM (inactive) | > 100 µM (inactive) | > 100 µM (inactive) |
